In patent US9023852B2, “1, 2, 4-thiadiazol-5-ylpiperazine derivatives useful in the treatment of neurodegenerative diseases” (Remynd NV, priority 2011, dated 2015):

The molecules below were run on M17—3TAU(P301L) cells (assay: Neuroblastoma tauopathy model: inhibition of TAU-induced cytotoxicity (LDH)). Conditions: Homo sapiens, 168 h; inhibition of TAU-induced toxicity (LDH), 7 days differentiation with retinoic acid.
Assay type: cell-based
Description: A TAU expression plasmid was constructed by sub-cloning the cDNA encoding for human TAU-P301L protein, wherein proline at position 301 is substituted by a leucine residue, into mammalian expression vector pcDNA3.1 resulting in the plasmid pcDNA3.1-TAUP301L. Plasmids pcDNA3.1 and pcDNA3.1-TAU P301L were transfected into human neuroblastoma cells (BE-M17; ATCC No. CRL-2267™) using lipofectamine reagent and subsequently, independent clonal cell lines with the plasmids stably integrated into the genome were selected by antibiotic resistance selection (Geneticin (G418)), resulting in cell lines M17.pcDNA3 and M17—3TAUP301L. Expression of the TAUP301L gene in the M17—3TAUP301L cells was confirmed by Western blot analysis.
Differentiation of the cells with RA leads to phosphorylation and subsequent aggregation of TAU, inducing a tauopathy in these cells. Cytotoxicity of cells was measured by quantification of lactate dehydrogenase (LDH) levels. In dead cells LDH is leaked out of the cells into the medium due to a loss of plasma-membrane integrity.
Briefly, 3 days preceding the experiment pre-cultures of M17.pcDNA3 and M17—3TAU(P301L) cells were prepared, starting from a stock culture, at a density of 50.000-100.000 cells/cm2 in detection medium (Optimem Reduced Serum without phenol red (Gibco, Cat. 31985-047) supplemented with 1% fetal calf serum (FCS), 1 mM sodium pyruvate, 1× non-essential amino acids (NEAA), 500 μg/ml G418 and 0.5× antibiotic/antimycotic (ABAM)). At the day of the experiment these precultures were diluted to ˜0, 1.106 cells/ml in detection medium without FCS and 60 μL of this suspension is dispensed per well into a 96-well microtiter plate. After 3 hours of incubation at 37° C./5% CO2 an equal volume of detection medium containing 2.5 μM RA was added and subsequently incubated for 7 days at 37° C./5% CO2. After 7 days, LDH activity was determined using the Promega Cytotox 96 Non-Radioactive cytotoxicity assay (Cat. G1780), according the manufacturer's instructions. Cytotoxicity is measured as the ratio of LDH increase in the supernatant divided by the LDH increase in the total cell suspension (sum of the LDH measured in cells and supernatant).
The M17—3TAU(P301L) cell line makes it possible to assess the ability of novel compounds to inhibit TAU-induced cytotoxicity. […] Compounds were tested for their ability to hamper TAU-induced toxicity at different concentrations, ranging from low non-effective concentrations to high potent concentrations. Afterwards, the dose-dependent inhibition curve was used to calculate their EC50 (Table 1).

Row | Structure (SMILES) | EC50 [nM]
1 | COc1ccc(CCN2CCN(c3nc(-c4cnccn4)ns3)CC2)cc1 [Example 76, 2-(5-{4-[2-(4-Methoxy-phenyl)-ethyl]-piperazin-1-yl}-[1,2,4]thiadiazol-3-yl)-pyrazine] | 40.8
2 | COc1cccc(CCN2CCN(c3nc(-c4cnccn4)ns3)CC2)c1 [Example 77, 2-(5-{4-[2-(3-Methoxy-phenyl)-ethyl]-piperazin-1-yl}-[1,2,4]thiadiazol-3-yl)-pyrazine] | 261
3 | COc1ccc(CCN2CCN(c3nc(-c4ccc(C#N)cc4)ns3)CC2)cc1 [Example 78, 4-(5-{4-[2-(4-Methoxy-phenyl)-ethyl]-piperazin-1-yl}-[1,2,4]thiadiazol-3-yl)-benzonitrile] | 2.1
4 | COc1ccc(CCN2CCN(c3nc(-c4ccc(Cl)cc4)ns3)CC2)cn1 [Example 79, 1-[3-(4-Chloro-phenyl)-[1,2,4]thiadiazol-5-yl]-4-[2-(6-methoxy-pyridin-3-yl)-ethyl]-piperazine] | 2.8
5 | COc1ccc(CCN2CCN(c3nc(-c4ccc(Cl)cc4)ns3)CC2)cc1F [Example 80, 1-[3-(4-Chloro-phenyl)-[1,2,4]thiadiazol-5-yl]-4-[2-(3-fluoro-4-methoxy-phenyl)-ethyl]-piperazine] | 2.7
6 | COc1ccc(CCN2CCN(c3nc(-c4cccc(C#N)c4)ns3)CC2)cc1 [Example 81, 3-(5-{4-[2-(4-Methoxy-phenyl)-ethyl]-piperazin-1-yl}-[1,2,4]thiadiazol-3-yl)-benzonitrile] | 0.6
7 | Clc1cccc(-c2nsc(N3CCN(CCc4ccccc4)CC3)n2)c1 [Example 82, 1-[3-(3-Chloro-phenyl)-[1,2,4]thiadiazol-5-yl]-4-phenethyl-piperazine] | 4
8 | Fc1cccc(-c2nsc(N3CCN(CCc4ccccc4)CC3)n2)c1 [Example 83, 1-[3-(3-Fluoro-phenyl)-[1,2,4]thiadiazol-5-yl]-4-phenethyl-piperazine] | 9.5
9 | COc1ccc(CCN2CCN(c3nc(-c4cccc(F)c4)ns3)CC2)cc1 [Example 84, 1-[3-(3-Fluoro-phenyl)-[1,2,4]thiadiazol-5-yl]-4-[2-(4-methoxy-phenyl)-ethyl]-piperazine] | 0.7
10 | Fc1ccc(CCN2CCN(c3nc(-c4cccc(Cl)c4)ns3)CC2)cc1 [Example 85, 1-[3-(3-Chloro-phenyl)-[1,2,4]thiadiazol-5-yl]-4-[2-(4-fluoro-phenyl)-ethyl]-piperazine] | 3.1
11 | Fc1ccc(CCN2CCN(c3nc(-c4cccc(F)c4)ns3)CC2)cc1 [Example 86, 1-[2-(4-Fluoro-phenyl)-ethyl]-4-[3-(3-fluoro-phenyl)-[1,2,4]thiadiazol-5-yl]-piperazine] | 8.9
12 | Clc1ccc(CCN2CCN(c3nc(-c4cccc(Cl)c4)ns3)CC2)cc1 [Example 87, 1-[2-(4-Chloro-phenyl)-ethyl]-4-[3-(3-chloro-phenyl)-[1,2,4]thiadiazol-5-yl]-piperazine] | 13.1
13 | COc1cc(CCN2CCN(c3nc(-c4cccc(Cl)c4)ns3)CC2)ccn1 [Example 89, 1-[3-(3-Chloro-phenyl)-[1,2,4]thiadiazol-5-yl]-4-[2-(2-methoxy-pyridin-4-yl)-ethyl]-piperazine] | 1.6
14 | COc1cc(CCN2CCN(c3nc(-c4cccc(F)c4)ns3)CC2)ccn1 [Example 90, 1-[3-(3-Fluoro-phenyl)-[1,2,4]thiadiazol-5-yl]-4-[2-(2-methoxy-pyridin-4-yl)-ethyl]-piperazine] | 6.8
15 | COc1ccc(CCN2CCN(c3nc(-c4cncc(Cl)c4)ns3)CC2)cc1 [Example 91, 1-[3-(5-Chloro-pyridin-3-yl)-[1,2,4]thiadiazol-5-yl]-4-[2-(4-methoxy-phenyl)-ethyl]-piperazine] | 0.9
16 | Cc1ccccc1CN1CCN(c2nc(-c3cccc(Cl)c3)ns2)CC1 [Example 92, 1-[3-(3-Chloro-phenyl)-[1,2,4]thiadiazol-5-yl]-4-(2-methyl-benzyl)-piperazine] | 43.3
17 | COc1ccc(CCN2CCN(c3nc(-c4cccc(Cl)c4)ns3)CC2)cn1 [Example 93, 1-[3-(3-Chloro-phenyl)-[1,2,4]thiadiazol-5-yl]-4-[2-(6-methoxy-pyridin-3-yl)-ethyl]-piperazine] | 0.9
18 | Cc1ccc(-c2nsc(N3CCN(CCc4ccccc4)CC3)n2)cn1 [Example 94, 1-[3-(6-Methyl-pyridin-3-yl)-[1,2,4]thiadiazol-5-yl]-4-phenethyl-piperazine] | 9.5
19 | COc1ccc(CCN2CCN(c3nc(-c4ccc(C)nc4)ns3)CC2)cc1 [Example 95, 1-[2-(4-Methoxy-phenyl)-ethyl]-4-[3-(6-methyl-pyridin-3-yl)-[1,2,4]thiadiazol-5-yl]-piperazine] | 3.1
20 | Cc1ccc(-c2nsc(N3CCN(CCc4ccc(F)cc4)CC3)n2)cn1 [Example 96, 1-[2-(4-Fluoro-phenyl)-ethyl]-4-[3-(6-methyl-pyridin-3-yl)-[1,2,4]thiadiazol-5-yl]-piperazine] | 28.1
21 | COc1cc(CCN2CCN(c3nc(-c4ccc(C)nc4)ns3)CC2)ccn1 [Example 97, 1-[2-(2-Methoxy-pyridin-4-yl)-ethyl]-4-[3-(6-methyl-pyridin-3-yl)-[1,2,4]thiadiazol-5-yl]-piperazine] | 51.3
22 | Cc1ccc(-c2nsc(N3CCN(CCc4ccc(Cl)cc4)CC3)n2)cn1 [Example 98, 1-[2-(4-Chloro-phenyl)-ethyl]-4-[3-(6-methyl-pyridin-3-yl)-[1,2,4]thiadiazol-5-yl]-piperazine] | 80.6
23 | Cc1ccccc1CN1CCN(c2nc(-c3cccc(F)c3)ns2)CC1 [Example 99, 1-[3-(3-Fluoro-phenyl)-[1,2,4]thiadiazol-5-yl]-4-(2-methyl-benzyl)-piperazine] | 271
24 | COc1ccc(CCN2CCN(c3nc(-c4cccc(F)c4)ns3)CC2)cn1 [Example 100, 1-[3-(3-Fluoro-phenyl)-[1,2,4]thiadiazol-5-yl]-4-[2-(6-methoxy-pyridin-3-yl)-ethyl]-piperazine] | 4.3
25 | Fc1ccc(-c2nsc(N3CCN(CCc4ccccc4)CC3)n2)cc1F [Example 101, 1-[3-(3,4-Difluoro-phenyl)-[1,2,4]thiadiazol-5-yl]-4-phenethyl-piperazine] | 3.2
26 | COc1ccc(CCN2CCN(c3nc(-c4ccc(F)c(F)c4)ns3)CC2)cc1 [Example 102, 1-[3-(3,4-Difluoro-phenyl)-[1,2,4]thiadiazol-5-yl]-4-[2-(4-methoxy-phenyl)-ethyl]-piperazine] | 0.9
27 | Fc1ccc(CCN2CCN(c3nc(-c4ccc(F)c(F)c4)ns3)CC2)cc1 [Example 103, 1-[3-(3,4-Difluoro-phenyl)-[1,2,4]thiadiazol-5-yl]-4-[2-(4-fluoro-phenyl)-ethyl]-piperazine] | 3.4
28 | Fc1ccc(-c2nsc(N3CCN(CCc4ccc(Cl)cc4)CC3)n2)cc1F [Example 104, 1-[2-(4-Chloro-phenyl)-ethyl]-4-[3-(3,4-difluoro-phenyl)-[1,2,4]thiadiazol-5-yl]-piperazine] | 11.2
29 | COc1ccc(CCN2CCN(c3nc(-c4ccc(F)c(F)c4)ns3)CC2)cn1 [Example 105, 1-[3-(3,4-Difluoro-phenyl)-[1,2,4]thiadiazol-5-yl]-4-[2-(6-methoxy-pyridin-3-yl)-ethyl]-piperazine] | 2.1
30 | COc1cc(CCN2CCN(c3nc(-c4ccc(F)c(F)c4)ns3)CC2)ccn1 [Example 106, 1-[3-(3,4-Difluoro-phenyl)-[1,2,4]thiadiazol-5-yl]-4-[2-(2-methoxy-pyridin-4-yl)-ethyl]-piperazine] | 3
